US10986838B2, “Herbicides” (SYNGENTA PARTICIPATIONS AG, priority 2016, dated 2021)

How the values were obtained:
Assay type in all cases: in vivo
[1] = test system: Abutilon theophrasti (ABUTH); assay: Pre-emergence herbicidal activity (B1); conditions: Test 1b, 1000 g/ha, evaluated after 13 days, 5=total damage to plant, 0=no damage to plant
Description: (§1) B1 Pre-Emergence Herbicidal Activity Seeds of a variety of test species were sown in standard soil in pots: Triticum aestivium (TRZAW), Avena fatua (AVEFA), Alopecurus myosuroides (ALOMY), Echinochloa crus-galli (ECHCG), Lolium perenne (LOLPE), Zea Mays (ZEAMX), Abutilon theophrasti (ABUTH), Amaranthus retroflexus (AMARE) and Setaria faberi (SETFA). After cultivation for one day (pre-emergence) under controlled conditions in a glasshouse (at 24/16° C., day/night; 14 hours light; 65% humidity), the plants were sprayed with an aqueous spray solution derived from the formulation of the technical active ingredient in acetone/water (50:50) solution containing 0.5% Tween 20 (polyoxyethelyene sorbitan monolaurate, CAS RN 9005-64-5). The test plants were then grown in a glasshouse under controlled conditions (at 24/16° C., day/night; 14 hours light; 65% humidity) and watered twice daily. After 13 days, the test was evaluated (5=total damage to plant; 0=no damage to plant). Tables B1a and B1b Control of Weed Species by Compound of Formula (I) after Pre-Emergence Application

[2] = test system: Amaranthus retroflexus (AMARE); assay: Pre-emergence herbicidal activity (B1); conditions: Test 1b, 1000 g/ha, evaluated after 13 days, 5=total damage to plant, 0=no damage to plant
Description: as §1

[3] = test system: Echinochloa crus-galli (ECHCG); assay: Pre-emergence herbicidal activity (B1); conditions: Test 1b, 1000 g/ha, evaluated after 13 days, 5=total damage to plant, 0=no damage to plant
Description: as §1

Lolium perenne (LOLPE) [4] = assay: Pre-emergence herbicidal activity (B1); conditions: Test 1b, 1000 g/ha, evaluated after 13 days, 5=total damage to plant, 0=no damage to plant
Description: as §1

Setaria faberi (SETFA) [5] = assay: Pre-emergence herbicidal activity (B1); conditions: Test 1b, 1000 g/ha, evaluated after 13 days, 5=total damage to plant, 0=no damage to plant
Description: as §1

Zea Mays (ZEAMX) [6] = assay: Pre-emergence herbicidal activity (B1); conditions: Test 1b, 1000 g/ha, evaluated after 13 days, 5=total damage to plant, 0=no damage to plant
Description: as §1

[7] = test system: Abutilon theophrasti (ABUTH); assay: Post-emergence herbicidal activity (B2); conditions: Test B2b, 1000 g/ha, evaluated after 13 days, 5=total damage to plant, 0=no damage to plant
Description: (§2) B2 Post-Emergence Herbicidal Activity Seeds of a variety of test species were sown in standard soil in pots: Triticum aestivium (TRZAW), Avena fatua (AVEFA), Alopecurus myosuroides (ALOMY), Echinochloa crus-galli (ECHCG), Lolium perenne (LOLPE), Zea Mays (ZEAMX), Abutilon theophrasti (ABUTH), Amaranthus retroflexus (AMARE) and Setaria faberi (SETFA). After 8 days cultivation (post-emergence) under controlled conditions in a glasshouse (at 24/16° C., day/night; 14 hours light; 65% humidity), the plants were sprayed with an aqueous spray solution derived from the formulation of the technical active ingredient in acetone/water (50:50) solution containing 0.5% Tween 20 (polyoxyethelyene sorbitan monolaurate, CAS RN 9005-64-5). The test plants were then grown in a glasshouse under controlled conditions (at 24/16° C., day/night; 14 hours light; 65% humidity) and watered twice daily. After 13 days, the test was evaluated (5=total damage to plant; 0=no damage to plant). Tables B2a and B2b Control of Weed Species by Compound of Formula (I) after Post-Emergence Application

[8] = test system: Amaranthus retroflexus (AMARE); assay: Post-emergence herbicidal activity (B2); conditions: Test B2b, 1000 g/ha, evaluated after 13 days, 5=total damage to plant, 0=no damage to plant
Description: as §2

[9] = test system: Echinochloa crus-galli (ECHCG); assay: Post-emergence herbicidal activity (B2); conditions: Test B2b, 1000 g/ha, evaluated after 13 days, 5=total damage to plant, 0=no damage to plant
Description: as §2

Lolium perenne (LOLPE) [10] = assay: Post-emergence herbicidal activity (B2); conditions: Test B2b, 1000 g/ha, evaluated after 13 days, 5=total damage to plant, 0=no damage to plant
Description: as §2

Setaria faberi (SETFA) [11] = assay: Post-emergence herbicidal activity (B2); conditions: Test B2b, 1000 g/ha, evaluated after 13 days, 5=total damage to plant, 0=no damage to plant
Description: as §2

Zea Mays (ZEAMX) [12] = assay: Post-emergence herbicidal activity (B2); conditions: Test B2b, 1000 g/ha, evaluated after 13 days, 5=total damage to plant, 0=no damage to plant
Description: as §2

| Structure (SMILES) | ABUTH damage score [1] | AMARE damage score [2] | ECHCG damage score [3] | LOLPE damage score (Lolium perenne (LOLPE) [4]) | SETFA damage score (Setaria faberi (SETFA) [5]) | ZEAMX damage score (Zea Mays (ZEAMX) [6]) | ABUTH damage score [7] | AMARE damage score [8] | ECHCG damage score [9] | LOLPE damage score (Lolium perenne (LOLPE) [10]) | SETFA damage score (Setaria faberi (SETFA) [11]) | ZEAMX damage score (Zea Mays (ZEAMX) [12]) |
| --- | --- | --- | --- | --- | --- | --- | --- | --- | --- | --- | --- | --- |
| Fc1cncc(-c2ccc(NCc3cccc(Cl)c3)c(C(F)(F)F)n2)c1 [Compound A18] | 0 | 0 | 2 | 0 | 4 | 4 | 0 | 0 | 3 | 2 | 5 | 5 |
| CC#CCNc1ccc(-c2cncc(F)c2)nc1C(F)(F)F [Compound A30] | 0 | 2 | 4 | 2 | 5 | 5 | 2 | 2 | 5 | 4 | 5 | 5 |
| Fc1cncc(-c2ccc(NCc3ccc(Cl)cc3)c(C(F)(F)F)n2)c1 [Compound A24] | 0 | 0 | 2 | 1 | 4 | 3 | 0 | 0 | 3 | 2 | 5 | 5 |
| Fc1cncc(-c2ccc(Nc3ccccc3)c(C(F)(F)F)n2)c1 [Compound A32, 6-(5-fluoro-3-pyridyl)-N-phenyl-2-(trifluoromethyl)pyridin-3-amine] | 1 | 1 | 4 | 1 | 5 | 1 | 0 | 0 | 4 | 3 | 5 | 4 |
| Fc1cncc(-c2ccc(NCc3ccc(C(F)(F)F)cc3)c(C(F)(F)F)n2)c1 [Compound A26] | 0 | 0 | 2 | 0 | 4 | 2 | 0 | 0 | 3 | 2 | 4 | 5 |
| CNc1ccc(-c2cncc(OC)c2)nc1C(F)(F)F [Compound A10] | 1 | 1 | 0 | 0 | 2 | 1 | 0 | 1 | 1 | 1 | 3 | 2 |
| CC(Nc1ccc(-c2cncc(F)c2)nc1C(F)(F)F)c1cccc(C(F)(F)F)c1 (stereo not drawn) [Compound A16] | 0 | 0 | 1 | 0 | 4 | 1 | 0 | 0 | 3 | 1 | 5 | 3 |
| CNc1ccc(-c2cncnc2)nc1C [Compound A15] | 0 | 0 | 1 | 0 | 1 | 1 | 0 | 1 | 2 | 1 | 2 | 1 |
